Data as given in ChEMBL document CHEMBL3580659, “One-pot multicomponent synthesis of indole incorporated thiazolylcoumarins and their antibacterial, anticancer and DNA cleavage studies” (2015).

Key:
Format in all cases: functional
A498 = experiment: Cytotoxicity against human A498 cells assessed as cell growth level at 1 uM after 48 hrs by sulforhodamine B assay
HOP-62 [1] = experiment: Cytotoxicity against human HOP62 cells assessed as cell growth level at 1 uM after 48 hrs by sulforhodamine B assay
RPMI-8226 = experiment: Cytotoxicity against human RPMI8226 cells assessed as cell growth level at 10 uM after 48 hrs by sulforhodamine B assay
SN12C [2] = experiment: Cytotoxicity against human SN12C cells assessed as cell growth level at 10 nM after 48 hrs by sulforhodamine B assay
DU-145 = experiment: Cytotoxicity against human DU145 cells assessed as cell growth level at 10 nM after 48 hrs by sulforhodamine B assay
HT-29 = experiment: Cytotoxicity against human HT-29 cells assessed as cell growth level at 100 nM after 48 hrs by sulforhodamine B assay
PC-3 [3] = experiment: Cytotoxicity against human PC3 cells assessed as cell growth level at 10 nM after 48 hrs by sulforhodamine B assay
LOX IMVI = experiment: Cytotoxicity against human LOXIMVI cells after 48 hrs by sulforhodamine B assay
M14 [4] = experiment: Cytotoxicity against human M14 cells assessed as cell growth level at 100 uM after 48 hrs by sulforhodamine B assay
NCI-H226 = experiment: Cytotoxicity against human NCI-H226 cells assessed as cell growth level at 1 uM after 48 hrs by sulforhodamine B assay
M14 [5] = experiment: Cytotoxicity against human M14 cells after 48 hrs by sulforhodamine B assay; details: M14, 48 h
KM12 = experiment: Cytotoxicity against human KM12 cells assessed as cell growth level at 100 nM after 48 hrs by sulforhodamine B assay
HOP-62 [6] = experiment: Cytotoxicity against human HOP62 cells assessed as cell growth level at 100 nM after 48 hrs by sulforhodamine B assay
Malme-3M = experiment: Cytotoxicity against human MALME-3M cells assessed as cell growth level at 100 uM after 48 hrs by sulforhodamine B assay
MDA-MB-231 = experiment: Cytotoxicity against human MDA-MB-231/ATCC cells assessed as cell growth level at 100 uM after 48 hrs by sulforhodamine B assay
BT-549 = experiment: Cytotoxicity against human BT549 cells assessed as cell growth level at 10 uM after 48 hrs by sulforhodamine B assay
SNB-19 [7] = experiment: Cytotoxicity against human SNB19 cells assessed as cell growth level at 100 nM after 48 hrs by sulforhodamine B assay
SF-295 [8] = experiment: Cytotoxicity against human SF295 cells assessed as cell growth level at 100 uM after 48 hrs by sulforhodamine B assay
NCI-H322M = experiment: Cytotoxicity against human NCI-H322M cells after 48 hrs by sulforhodamine B assay
PC-3 [9] = experiment: Cytotoxicity against human PC3 cells assessed as cell growth level at 100 nM after 48 hrs by sulforhodamine B assay
SF-295 [10] = experiment: Cytotoxicity against human SF295 cells assessed as cell growth level at 100 nM after 48 hrs by sulforhodamine B assay
RXF 393 = experiment: Cytotoxicity against human RXF393 cells after 48 hrs by sulforhodamine B assay; details: RXF 393, 48 h
MDA-MB-435 = experiment: Cytotoxicity against human MDA-MB-435 cells assessed as cell growth level at 1 uM after 48 hrs by sulforhodamine B assay
SR = experiment: Cytotoxicity against human SR cells assessed as cell growth level at 10 nM after 48 hrs by sulforhodamine B assay
HOP-62 [11] = experiment: Cytotoxicity against human HOP62 cells assessed as cell growth level at 100 uM after 48 hrs by sulforhodamine B assay
IGROV-1 [12] = experiment: Cytotoxicity against human IGROV1 cells assessed as cell growth level at 1 uM after 48 hrs by sulforhodamine B assay
UACC-62 = experiment: Cytotoxicity against human UACC62 cells assessed as cell growth level at 10 uM after 48 hrs by sulforhodamine B assay
SNB-19 [13] = experiment: Cytotoxicity against human SNB19 cells assessed as cell growth level at 10 nM after 48 hrs by sulforhodamine B assay
SF-295 [14] = experiment: Cytotoxicity against human SF295 cells assessed as cell growth level at 10 nM after 48 hrs by sulforhodamine B assay
IGROV-1 [15] = experiment: Cytotoxicity against human IGROV1 cells assessed as cell growth level at 10 uM after 48 hrs by sulforhodamine B assay
K562 = experiment: Cytotoxicity against human K562 cells assessed as cell growth level at 100 uM after 48 hrs by sulforhodamine B assay
A549 = experiment: Cytotoxicity against human A549/ATCC cells assessed as cell growth level at 100 nM after 48 hrs by sulforhodamine B assay
SW-620 = experiment: Cytotoxicity against human SW620 cells assessed as cell growth level at 1 uM after 48 hrs by sulforhodamine B assay
SK-MEL-2 = experiment: Cytotoxicity against human SK-MEL-2 cells assessed as cell growth level at 100 uM after 48 hrs by sulforhodamine B assay
OVCAR-5 = experiment: Cytotoxicity against human OVCAR5 cells assessed as cell growth level at 100 uM after 48 hrs by sulforhodamine B assay
T47D = experiment: Cytotoxicity against human T47D cells assessed as cell growth level at 100 uM after 48 hrs by sulforhodamine B assay
SN12C [16] = experiment: Cytotoxicity against human SN12C cells after 48 hrs by sulforhodamine B assay
COLO 205 = experiment: Cytotoxicity against human COLO205 cells assessed as cell growth level at 10 nM after 48 hrs by sulforhodamine B assay
PC-3 [17] = experiment: Cytotoxicity against human PC3 cells assessed as cell growth level at 1 uM after 48 hrs by sulforhodamine B assay
[18] = read-out: LC50 (the source's name)
[19] = read-out: pLC50 (the source's name) (converted)

With `O=c1oc2ccccc2cc1-c1csc(N/N=C/c2c[nH]c3ccccc23)n1` the Activity (A498) was 61%, the Activity (HOP-62 [1]) was 103% and the Activity (RPMI-8226) was -33.83%. The Activity (SN12C [2]) was 88%, the Activity (DU-145) was 95% and the Activity (HT-29) was 105%. For the same compound, the Activity (PC-3 [3]) was 105%, the GI50 (LOX IMVI; read-out: GI50) was 1.93 µM and the CC50 (LOX IMVI; [18]) was 6.71 µM. It also gave a TGI (LOX IMVI; read-out: TGI) of 3.6 µM, a GI50 (LOX IMVI; read-out: pGI50 (converted)) of 1.91 µM and a CC50 (LOX IMVI; [19]) of 6.76 µM. The TGI (LOX IMVI; read-out: pTGI (converted)) was 3.63 µM, the Activity (M14 [4]) was -77% and the Activity (NCI-H226) was 101%. It also gave a GI50 (M14 [5]; read-out: GI50) of 1.95 µM, a CC50 (M14 [5]; [18]) of 9.13 µM and a TGI (M14 [5]; read-out: TGI) of 4.22 µM. For the same compound, the GI50 (M14 [5]; read-out: pGI50 (converted)) was 1.95 µM, the CC50 (M14 [5]; [19]) was 9.12 µM and the TGI (M14 [5]; read-out: pTGI (converted)) was 4.17 µM. The Activity (KM12) was 98%, the Activity (HOP-62 [6]) was 110% and the Activity (Malme-3M) was -67%. It also gave an Activity (MDA-MB-231) of -3%, an Activity (BT-549) of -12.14% and an Activity (SNB-19 [7]) of 89%. For the same compound, the Activity (SF-295 [8]) was -71%, the GI50 (NCI-H322M; read-out: GI50) was 3.16 µM and the LC50 (concentration killing 50% of cells) (NCI-H322M; read-out: LC50) was > 100 µM. The TGI (NCI-H322M; read-out: TGI) was 32.2 µM, the GI50 (NCI-H322M; read-out: pGI50 (converted)) was 3.16 µM and the LC50 (concentration killing 50% of cells) (NCI-H322M; read-out: pLC50 (converted)) was > 100 µM. For the same compound, the TGI (NCI-H322M; read-out: pTGI (converted)) was 32.4 µM, the Activity (PC-3 [9]) was 102% and the Activity (SF-295 [10]) was 97%. For the same compound, the GI50 (RXF 393; read-out: GI50) was 1.97 µM, the CC50 (RXF 393; [18]) was 33.9 µM and the TGI (RXF 393; read-out: TGI) was 4.77 µM. For the same compound, the GI50 (RXF 393; read-out: pGI50 (converted)) was 1.95 µM, the CC50 (RXF 393; [19]) was 33.9 µM and the TGI (RXF 393; read-out: pTGI (converted)) was 4.79 µM. For the same compound, the Activity (MDA-MB-435) was 79%, the Activity (SR) was 94% and the Activity (HOP-62 [11]) was -24%. It also gave an Activity (IGROV-1 [12]) of 58%, an Activity (UACC-62) of 42.96% and an Activity (SNB-19 [13]) of 91%. The Activity (SF-295 [14]) was 93%, the Activity (IGROV-1 [15]) was 0.26% and the Activity (K562) was -38%. The Activity (A549) was 92%, the Activity (SW-620) was 72% and the Activity (SK-MEL-2) was -93%. It also gave an Activity (OVCAR-5) of -36%, an Activity (T47D) of -35% and a GI50 (SN12C [16]; read-out: GI50) of 1.08 µM. For the same compound, the CC50 (SN12C [16]; [18]) was > 100 µM, the TGI (SN12C [16]; read-out: TGI) was 3.96 µM and the GI50 (SN12C [16]; read-out: pGI50 (converted)) was 1.07 µM. For the same compound, the CC50 (SN12C [16]; [19]) was > 100 µM, the TGI (SN12C [16]; read-out: pTGI (converted)) was 3.98 µM and the Activity (COLO 205) was 110%. It also gave an Activity (PC-3 [17]) of 84%.
